In PubChem BioAssay AID504681 (National Center for Advancing Translational Sciences (NCATS), 2011):

Test system: PBS pH 7.4 stability, LC-MS/MS, 48 h
Assay: Inhibitors of Human alpha-Glucosidase: PBS Stability Profiling
Settings: at 20 µM; hits give high values
Description: Alpha-glucosidase is responsible for the hydrolysis of terminal, non-reducing 1,4-linked alpha-D-glucose residues, which releases alpha-D-glucose. It is a lysosomal hydrolase that is required for the degradation of a small percentage (1-3%) of cellular glycogen in humans. Deficiency of this enzyme results in glycogen-storage disease type II (GSDII), also referred to as Pompe disease, an autosomal recessive disorder. Structurally normal glycogen is accumulated in the lysosomes and cytoplasm in affected patients, primarily in muscle tissues. Excessive glycogen storage within lysosomes may interrupt normal functioning of other organelles and leads to cellular injury. In turn, this leads to enlargement and dysfunction of the entire organ involved (eg: cardiomyopathy and muscle weakness). The stability of the lead compound in PBS buffer is tested because this parameter has a significant impact on many ADME-concerned properties of drugs, such as uptake, distribution, transport, and eventually bioavailability. NIH Chemical Genomics Center [NCGC] NIH Molecular Libraries Probe Production Centers Network [MLPCN] […]
20uM of compound is incubated in PBS buffer at pH 7.4 at […]; the reference compound is procaine. Compounds are incubated at 37 deg C for the pre-determined time periods and the when aliquots are removed. Samples are analyzed with LC-MS/MS.

percent remaining: 100%
Structure (SMILES): CC(=O)c1ccc(N2CCN(S(=O)(=O)c3ccc4c(c3)CC(=O)N4)CC2)cc1
